# Test results published in patent publication US11629171B2, “Beta-hairpin peptidomimetics” (POLYPHOR AG, priority 2017, dated 2023).
# Where a SMILES comes first, the peptide text is derived from it. Bridges are numbered along the chain shown (N, C = ends). Roman numbers before positions name the chains, in order. [ ]: non-standard residue; d: D form. Thr(ol) = C[C@@H](O)[C@H](N)CO; Tle = CC(C)(C)[C@H](N)C(=O)O; Hiv = CC(C)[C@H](O)C(=O)O; dDab = NCC[C@@H](N)C(=O)O; hSer = N[C@@H](CCO)C(=O)O; Dab = NCC[C@H](N)C(=O)O; Dap = NC[C@H](N)C(=O)O
# Tests used:
# [1] = system: male ICR mice; assay: Tolerability in a mouse model (Maximum Tolerated Dose assay); assay type: in vivo; conditions: groups of 3
# Procedure: The tolerability of the peptides was tested in a mouse model at Pharmacology Discovery Services Taiwan Ltd, Taipei, Taiwan. The peptides were administered subcutaneously (s.c.) at 30 mg/kg or 40 mg/kg, respectively; twice at a 12-hr interval, for assessment of possible adverse effects in the Maximum Tolerated Dose (MTD) assay in male ICR (Institute of Cancer Research) mice. The peptides were dissolved in 0.9% NaCl at the concentrations either of 6 or 8 mg/mL, respectively, based on the free base molecular weight. The pH values of dosing solutions were adjusted to 6.5-7.6 before s.c. administration. A dosing volume at 5 mL/kg and a concentration of 6 or 8 mg/mL, respectively, was applied. The fresh prepared stock solution were stored at 4° C. during the study. Male ICR mice weighing 23±3 g were provided by BioLasco Taiwan (under Charles River Laboratories Licensee). Animals were acclimated for 3 days prior to use and were confirmed to be in good health. The peptides were administered s.c. at 30 mg/kg or 40 mg/kg, respectively, twice at a 12-hr interval, to groups of 3 ICR male mice and observed for the presence of acute toxic symptoms (mortality, convulsions, tremors, muscle relaxation, sedation, etc.) and autonomic effects (diarrhea, salivation, lacrimation, vasodilation, piloerection, etc.) during the first 30 min. The peptides were administered again at a 12-hr (two total doses) interval, following the first dose. The animals were then observed again for the presence of acute toxic symptoms and autonomic effects during the first 30 min.
# [2] = system: human red blood cells (hRBC); assay: Hemolysis; assay type: cell-based; conditions: red cells of human, 1 h, 200
# How it was run: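 Percent lysis of human red cells was derived from OD540 of the supernatant, referenced to 2% Triton X-100, after a 1 h, 37° C incubation of 20% (v/v) cells with 200 μg/mL peptide.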
# [3] = system: Klebsiella pneumoniae SSI #3010; assay type: cell-based; conditions: SSI #3010
# How it was run: (§1)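 CLSI broth microdilution in cation-adjusted Mueller-Hinton II broth with 0.002% polysorbate 80 (final), inoculum appr. 10^6 CFU/mL, peptides in serial two-fold dilutions. MIC (μg/mL) is the lowest concentration without visible growth after 18-20 h at 35° C.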
# [4] = system: Escherichia coli ATCC 25922; assay type: cell-based; conditions: ATCC 25922
# How it was run: as §1
# [5] = system: Acinetobacter baumannii DSM 30008; assay type: cell-based; conditions: DSM 30008
# How it was run: as §1
# [6] = system: Klebsiella pneumoniae 968733; assay type: cell-based; conditions: 968733
# How it was run: as §1
# [7] = system: Escherichia coli 926415; assay type: cell-based; conditions: 926415
# How it was run: as §1
# [8] = system: Acinetobacter baumannii 872842; assay type: cell-based; conditions: 872842
# How it was run: as §1
# [9] = system: Enterobacter cloacae 848840; assay type: cell-based; conditions: 848840
# How it was run: as §1
# [10] = system: Pseudomonas aeruginosa ATCC 27853; assay type: cell-based; conditions: ATCC 27853
# How it was run: as §1
# [11] = 2 × 30 mg/kg s.c. at a 12-hr interval
# [12] = 2 × 40 mg/kg s.c. at a 12-hr interval
SMILES,"Mortality and dose [1, 11]",Hemolysis at 200 μg/mL [2] [%],MIC [3] [µg/mL],MIC [4] [µg/mL],MIC [5] [µg/mL],MIC [6] [µg/mL],MIC [7] [µg/mL],MIC [8] [µg/mL],MIC [9] [µg/mL],MIC [10] [µg/mL],"Mortality and dose [1, 12]",Klebsiella pneumoniae SSI #3010 MIC [3] [µg/mL],Escherichia coli ATCC 25922 MIC [4] [µg/mL],Acinetobacter baumannii DSM 30008 MIC [5] [µg/mL],Pseudomonas aeruginosa ATCC 27853 MIC [10] [µg/mL]
CC(=O)N[C@H](C(=O)N[C@H]1CSSC[C@@H](C(=O)N[C@@H](Cc2ccc(O)cc2)C(N)=O)NC(=O)[C@H](C(C)C)NC(=O)[C@H](CO)NC(=O)[C@H](Cc2c[nH]c3ccccc23)NC(=O)[C@H](CCO)NC(=O)[C@@H](CCN)NC(=O)[C@H](CCC(=O)N[C@@H](CCN)C(=O)N[C@H](C(=O)N[C@@H](CCN)C(=O)N[C@H]2CCNC(=O)[C@H]([C@@H](C)O)NC(=O)[C@H](CCN)NC(=O)[C@H](CCN)NC(=O)[C@H](CC(C)C)NC(=O)[C@@H](CC(C)C)NC(=O)[C@H](CCN)NC2=O)[C@@H](C)O)NC(=O)[C@H](CCN)NC(=O)[C@H](CO)NC1=O)C(C)C [Ex. 65] (I: Ac-VCS[Dab]E[dDab][hSer]WSVCY-NH2 / II: [Dab]T[Dab][Dab][Dab][dL]L[Dab][Dab]T; disulfide I:2-I:11; amide I:5-II:N; lactam II:4-II:C),0/3 died at 2 × 30 mg/kg,<1,0.25,0.125,0.125,0.5,0.5,0.25,4,0.125,–,–,–,–,–
CC(C)C[C@@H]1NC(=O)[C@@H](CC(C)C)NC(=O)[C@H](CCN)NC(=O)[C@@H](NC(=O)[C@H](CN)NC(=O)[C@@H](NC(=O)[C@H](CCN)NC(=O)CC[C@@H]2NC(=O)[C@H](CO)NC(=O)[C@H](Cc3ccc(O)cc3)NC(=O)[C@@H](NC(=O)[C@@H](O)C(C)C)CSSC[C@@H](C(=O)N[C@@H](CO)C(N)=O)NC(=O)[C@H](C(C)C)NC(=O)[C@H](CO)NC(=O)[C@H](Cc3c[nH]c4ccccc34)NC(=O)[C@H](CCN)NC(=O)[C@@H](CCN)NC2=O)[C@@H](C)O)CCNC(=O)[C@H]([C@@H](C)O)NC(=O)[C@H](CCN)NC(=O)[C@H](CCN)NC1=O [Ex. 270] (I: H-[Hiv]CYSE[dDab][Dab]WSVCS-NH2 / II: [Dab]T[Dap][Dab][Dab][dL]L[Dab][Dab]T; disulfide I:2-I:11; amide I:5-II:N; lactam II:4-II:C),–,<1,0.0625,0.0625,0.0625,0.125,0.125,0.0625,0.25,0.125,0/3 died at 2 × 40 mg/kg,–,–,–,–
CC(=O)N[C@H](C(=O)N[C@H]1CSSC[C@@H](C(=O)N[C@@H](CO)C(N)=O)NC(=O)[C@H](C(C)C)NC(=O)[C@H](CO)NC(=O)[C@H](Cc2c[nH]c3ccccc23)NC(=O)[C@H](CCC(=O)N[C@@H](CCN)C(=O)N[C@H](C(=O)N[C@@H](CN)C(=O)N[C@H]2CCNC(=O)[C@H]([C@@H](C)O)NC(=O)[C@H](CCN)NC(=O)[C@H](CCN)NC(=O)[C@H](CC(C)C)NC(=O)[C@@H](CC(C)C)NC(=O)[C@H](CCN)NC2=O)[C@@H](C)O)NC(=O)[C@@H](CCN)NC(=O)[C@H](C)NC(=O)[C@H](CCN)NC(=O)[C@H](Cc2ccc(O)cc2)NC1=O)C(C)C [Ex. 361] (I: Ac-VCY[Dab]A[dDab]EWSVCS-NH2 / II: [Dab]T[Dap][Dab][Dab][dL]L[Dab][Dab]T; disulfide I:2-I:11; amide I:7-II:N; lactam II:4-II:C),–,<1,–,–,–,0.125,0.125,0.0625,0.0625,–,0/3 died at 2 × 40 mg/kg,0.0625,0.0625,0.0625,0.125
CC(C)C[C@@H]1NC(=O)[C@@H](CC(C)C)NC(=O)[C@H](CCN)NC(=O)[C@@H](NC(=O)[C@H](CCN)NC(=O)[C@@H](NC(=O)[C@H](CCN)NC(=O)CC[C@@H]2NC(=O)[C@@H](NC(=O)[C@H](Cc3ccc(O)cc3)NC(=O)[C@@H](NC(=O)[C@@H](O)C(C)C)[C@@H](C)O)CSSC[C@@H](C(=O)N[C@H](C(=O)N[C@@H](C)C(=O)N[C@H](CO)[C@@H](C)O)C(C)(C)C)NC(=O)[C@H](Cc3c[nH]c4ccccc34)NC(=O)[C@H]([C@@H](C)O)NC(=O)[C@@H](CCN)NC2=O)[C@@H](C)O)CCNC(=O)[C@H]([C@@H](C)O)NC(=O)[C@H](CCN)NC(=O)[C@H](CCN)NC1=O [Ex. 188] (I: H-[Hiv]TYCE[dDab]TWC[Tle]A[Thr(ol)] / II: [Dab]T[Dab][Dab][Dab][dL]L[Dab][Dab]T; disulfide I:4-I:9; amide I:5-II:N; lactam II:4-II:C),0/3 died at 2 × 30 mg/kg,<1,0.25,0.0625,0.125,1,0.5,0.5,0.5,0.5,–,–,–,–,–
CC(=O)N[C@H](C(=O)N[C@H]1CSSC[C@@H](C(=O)N[C@@H](CO)C(N)=O)NC(=O)[C@H](C(C)C)NC(=O)[C@H](CO)NC(=O)[C@H](Cc2c[nH]c3ccccc23)NC(=O)[C@H](CO)NC(=O)[C@@H](CCN)NC(=O)[C@H](CCC(=O)N[C@@H](CCN)C(=O)N[C@H](C(=O)N[C@@H](CCN)C(=O)N[C@H]2CCNC(=O)[C@H]([C@@H](C)O)NC(=O)[C@H](CCN)NC(=O)[C@H](CCN)NC(=O)[C@H]([C@@H](C)O)NC(=O)[C@@H](CC(C)C)NC(=O)[C@H](CCN)NC2=O)[C@@H](C)O)NC(=O)[C@H](CCN)NC(=O)[C@H](Cc2ccc(O)cc2)NC1=O)C(C)C [Ex. 333] (I: Ac-VCY[Dab]E[dDab]SWSVCS-NH2 / II: [Dab]T[Dab][Dab][Dab][dL]T[Dab][Dab]T; disulfide I:2-I:11; amide I:5-II:N; lactam II:4-II:C),–,2,–,–,–,1,0.5,0.5,0.25,–,0/3 died at 2 × 40 mg/kg,0.0625,0.0625,0.125,0.25
CC(=O)N[C@H](C(=O)N[C@H]1CSSC[C@@H](C(=O)N[C@@H](CO)C(N)=O)NC(=O)[C@H](C(C)(C)C)NC(=O)[C@H](CCO)NC(=O)[C@H](Cc2c[nH]c3ccccc23)NC(=O)[C@H](CCO)NC(=O)[C@@H](CCN)NC(=O)[C@H](CCC(=O)N[C@@H](CCN)C(=O)N[C@H](C(=O)N[C@@H](CCN)C(=O)N[C@H]2CCNC(=O)[C@H]([C@@H](C)O)NC(=O)[C@H](CCN)NC(=O)[C@H](CCN)NC(=O)[C@H](CC(C)C)NC(=O)[C@@H](CC(C)C)NC(=O)[C@H](CCN)NC2=O)[C@@H](C)O)NC(=O)[C@H](CCN)NC(=O)[C@H](Cc2ccc(O)cc2)NC1=O)C(C)C [Ex. 49] (I: Ac-VCY[Dab]E[dDab][hSer]W[hSer][Tle]CS-NH2 / II: [Dab]T[Dab][Dab][Dab][dL]L[Dab][Dab]T; disulfide I:2-I:11; amide I:5-II:N; lactam II:4-II:C),–,<1,0.125,0.125,0.0625,0.125,0.25,0.25,0.25,0.125,–,–,–,–,–
